Read-outs that look alike come from different tables or passages of the source.
Legend:
Human α4β2 = target: T1, Human α4β2 (Homo sapiens, UniProt P17787+P43681); test: Competition binding to human α4β2 receptors in membranes of SH-EP1/human α4β2 cells ([3H]-nicotine); settings: membrane competition binding
T1 construct: host or cells: SH-EP1

Rat α4β2 = target: T2, Rat α4β2 (Rattus norvegicus, UniProt P09483+P12390); test: Competition binding to rat α4β2 receptors in rat cortical membranes; settings: rat cortex membranes
T2 construct: Rat cortices were obtained from Analytical Biological Services; tissue Analytical Biological Services, Incorporated (ABS, Wilmington, Del.); host or cells: rat cortex (female Sprague-Dawley)
Description: Preparation of membranes from rat tissues. Rat cortices were obtained from Analytical Biological Services, Incorporated (ABS, Wilmington, Del.). Tissues were dissected from female Sprague-Dawley rats, frozen and shipped on dry ice. Tissues were stored at −20° C. until needed for membrane preparation. […] The resulting homogenate was centrifuged at 40,000 g for 20 minutes at 4° C. and the resulting pellet was resuspended in 20 volumes of ice-cold water. After 60-minute incubation at 4° C., a new pellet was collected by centrifugation at 40,000 g for 20 minutes at 4° C. The final pellet was resuspended in preparative buffer and stored at −20° C. On the day of the assay, tissue was thawed, centrifuged at 40,000 g for 20 minutes and then resuspended in PBS (Dulbecco's Phosphate Buffered Saline, Life Technologies, pH 7.4) to a final concentration of 2-3 mg protein/mL. Protein concentrations were determined using the Pierce BCA Protein Assay kit (Pierce Biotechnology, Rockford, Ill.), with bovine serum albumin as the standard.
Competition binding to receptors in membrane preparations. […] In brief, membranes were reconstituted from frozen stocks (approximately 0.2 mg protein) and incubated for 2 h on ice in […] assay buffer (PBS) in the presence of competitor compound (0.001 nM to […]) and radioligand. [^3H]-nicotine (L-(−)-[N-methyl-3H]-nicotine, 69.5 Ci/mmol, Perkin-Elmer Life Sciences) was used for human α4β2 binding studies. [^3H]-epibatidine (52 Ci/mmol, Perkin-Elmer Life Sciences) was used for binding studies at the other receptor subtypes. […] Filters were washed 3 times and the radioactivity retained was determined by liquid scintillation counting.
Binding data analysis. Binding data were expressed as percent total control binding. Replicates for each point were averaged and plotted against the log of drug concentration.

α6β3β4α5 = target: T3, α6β3β4α5 (Homo sapiens, UniProt P30926+Q15825); test: Competition binding to α6β3β4α5 receptors in membranes of SH-EP1/α6β3β4α5 cells ([3H]-epibatidine); settings: membrane competition binding, read-out: α6β3β4α5 Ki
T3 construct: host or cells: SH-EP1

SMILES	Ki (Human α4β2; read-out: Human α4β2 Ki) [µM]	other results
Cc1nocc1C(=O)N1C2CNCC1C2	1.1	
O=C(c1cnco1)N1C2CNCC1C2		Ki (Human α4β2; Human α4β2 Ki): 0.072 µM; Ki (Rat α4β2; Rat α4β2 Ki): 0.017 µM
CC(C)C(=O)N1C2CNCC1C2	0.26	
CC(C)CC(=O)N1C2CNCC1C2	0.12	Ki (Rat α4β2; Rat α4β2 Ki): 0.059 µM
O=C(C1CC=CCC1)N1C2CNCC1C2 (stereo not shown)	1.2	
CC1(C)CC(C(=O)N2C3CNCC2C3)C1	0.76	
O=C(CC1C=CCC1)N1CC2CC(C1)N2 (stereo not shown)		Ki (Human α4β2; Human α4β2 Ki): 0.011 µM; Ki (Rat α4β2; Rat α4β2 Ki): 0.034 µM
O=C(CC1CCCC1)N1CC2CC(C1)N2	0.44	
O=C(C1Cc2ccccc2C1)N1CC2CC(C1)N2	0.8	
O=C(COCc1ccccc1)N1CC2CC(C1)N2	1	
O=C(CCOc1ccc(F)cc1)N1CC2CC(C1)N2	0.66	
O=C(C1Cc2ccccc21)N1CC2CC(C1)N2 (stereo not shown)	2	
CO[C@H](C(=O)N1CC2CC(C1)N2)c1ccccc1	0.95	
O=C(CC1CCOC1)N1CC2CC(C1)N2 (stereo not shown)	0.24	
O=C(Cc1c[nH]c2ccccc12)N1CC2CC(C1)N2	0.75	
O=C(COc1ccc(F)cc1)N1CC2CC(C1)N2	0.36	
O=C(CC1CCOCC1)N1CC2CC(C1)N2	2.8	
Cn1c(C(=O)N2CC3CC(C2)N3)cc2ccccc21	0.42	
O=C(C1CCOCC1)N1CC2CC(C1)N2	0.32	
O=C(CC1CC1)N1CC2CC(C1)N2		Ki (Human α4β2; Human α4β2 Ki): 0.064 µM; Ki (Rat α4β2; Rat α4β2 Ki): 0.017 µM
O=C([C@H]1C[C@H]1F)N1C2CNCC1C2		Ki (Human α4β2; Human α4β2 Ki): 0.0037 µM; Ki (Rat α4β2; Rat α4β2 Ki): 0.00089 µM
O=C([C@H]1C[C@@H]1F)N1C2CNCC1C2		Ki (Human α4β2; Human α4β2 Ki): 0.0022 µM; Ki (Rat α4β2; Rat α4β2 Ki): 0.001 µM
O=C(COc1ccc(Cl)c(Cl)c1)N1CC2CC(C1)N2	0.33	Ki (α6β3β4α5): 0.7 µM
O=C(NCc1ccc(Cl)cc1)N1C2CNCC1C2	6.5	Ki (α6β3β4α5): 3.4 µM
O=C(NCc1ccc(Cl)cc1Cl)N1C2CNCC1C2	1.1	Ki (α6β3β4α5): 21 µM

SMILES	Ki (Human α4β2; read-out: Human α4β2 Ki) [µM]	other results
O=C(NCc1ccc(Cl)c(Cl)c1)N1C2CNCC1C2	3.1	Ki (α6β3β4α5): 5.9 µM
O=C(C1C2C3CCC(C3)C12)N1CC2CC(C1)N2 (stereo not shown)	1.3	Ki (α6β3β4α5): 22 µM
CCC1(CC)CC1C(=O)N1C2CNCC1C2 (stereo not shown)	0.85	Ki (α6β3β4α5): 4.4 µM
C[C@@H]1C(C(=O)N2C3CNCC2C3)[C@@H]1C (stereo partly shown)	0.61	Ki (α6β3β4α5): 2.4 µM
O=C(C1CC12CCCC2)N1C2CNCC1C2 (stereo not shown)	0.28	Ki (α6β3β4α5): 0.61 µM
O=C(C1C2CCCCC21)N1C2CNCC1C2 (stereo not shown)	0.31	Ki (α6β3β4α5): 6.4 µM
CCC[C@H]1C[C@H]1C(=O)N1C2CNCC1C2	0.57	Ki (α6β3β4α5): 1.1 µM
O=C(C1C2C3CCC(C3)C12)N1C2CNCC1C2 (stereo not shown)	1.9	Ki (α6β3β4α5): 100 µM
O=C([C@@H]1C[C@H]2C=C[C@H]1C2)N1C2CNCC1C2	0.3	Ki (α6β3β4α5): 1.3 µM
C[C@@H]1C[C@@H]1C(=O)N1CC2CC(C1)N2	0.022	
C[C@H]1C[C@@H]1C(=O)N1C2CNCC1C2	0.21	Ki (α6β3β4α5): 31 µM
C[C@@H]1C[C@@H]1C(=O)N1C2CNCC1C2	0.82	Ki (α6β3β4α5): 30 µM
O=C(OCCF)N1CC2CC(C1)N2 [3-(2-fluoroethoxy)carbonyl-3,6-diazabicyclo[3.1.1]heptane]		Ki (Human α4β2; Human α4β2 Ki): 0.0059 µM; Ki (Rat α4β2; Rat α4β2 Ki): 0.052 µM
COCCC(=O)N1CC2CC(C1)N2 [3-(2-methoxyethyl)carbonyl-3,6-diazabicyclo[3.1.1]heptane]		Ki (Human α4β2; Human α4β2 Ki): 0.072 µM
O=C(c1ccno1)N1CC2CC(C1)N2 [3-(isoxazol-5-yl)carbonyl-3,6-diazabicyclo[3.1.1]heptane]	0.15	
O=C(C1CCOC1)N1CC2CC(C1)N2 (stereo not shown) [3-(tetrahydrofuran-3-yl)carbonyl-3,6-diazabicyclo[3.1.1]heptane]	0.27	
CC(C)OC(=O)N1CC2CC(C1)N2 [3-isopropoxycarbonyl-3,6-diazabicyclo[3.1.1]heptane]	0.13	
COCCOC(=O)N1CC2CC(C1)N2 [3-methoxyethoxycarbonyl-3,6-diazabicyclo[3.1.1]heptane]	0.12	
CC(=O)N1CC2CC(C1)N2 [3-methylcarbonyl-3,6-diazabicyclo[3.1.1]heptane]		Ki (Human α4β2; Human α4β2 Ki): 0.17 µM
CCCOC(=O)N1CC2CC(C1)N2 [3-propoxycarbonyl-3,6-diazabicyclo[3.1.1]heptane]		Ki (Human α4β2; Human α4β2 Ki): 0.024 µM
O=C(c1ccc(Br)o1)N1C2CNCC1C2 [6-(2-bromorofuran-5-yl)carbonyl-3,6-diazabicyclo[3.1.1]heptane]		Ki (Human α4β2; Human α4β2 Ki): 0.066 µM; Ki (Rat α4β2; read-out: Rat α4β2 Ki): 0.26 µM
O=C(c1ccc(Cl)o1)N1C2CNCC1C2 [6-(2-chlorofuran-5-yl)carbonyl-3,6-diazabicyclo[3.1.1]heptane]		Ki (Human α4β2; Human α4β2 Ki): 0.038 µM; Ki (Rat α4β2; Rat α4β2 Ki): 0.044 µM
COCCC(=O)N1C2CNCC1C2 [6-(2-methoxyethyl)carbonyl-3,6-diazabicyclo[3.1.1]heptane]	0.37	
O=C(C1CCC1)N1C2CNCC1C2 [6-cyclobutylcarbonyl-3,6-diazabicyclo[3.1.1]heptane]		Ki (Human α4β2; Human α4β2 Ki): 0.014 µM; Ki (Rat α4β2; Rat α4β2 Ki): 0.026 µM

From patent US8802694B2, “3,6-diazabicyclo[3.1.1]heptanes as neuronal nicotinic acetycholine receptor ligands” (Targacept, Inc., priority 2009, dated 2014)
